Reference: ChEMBL document CHEMBL2440080, “Synthesis and biological evaluation of novel acylhydrazone derivatives as potential antitumor agents” (Bioorg Med Chem, 2013)

How the values were obtained:
CAKI-1 = assay: Cytotoxicity against human CAKI-1 cells after 48 hrs by sulforhodamine B assay; assay type: functional; details: CAKI-1, 48 h
Mus musculus = assay: Toxicity in athymic nude mouse assessed as survival at 400 mg/kg, ip measured after 2 weeks; assay type: organism-based; design: dose 400 mg/kg, route intraperitoneal; details: in vivo, 336 h
T47D = assay: Cytotoxicity against human T47D cells after 48 hrs by sulforhodamine B assay; assay type: functional
BT-549 = assay: Cytotoxicity against human BT549 cells after 48 hrs by sulforhodamine B assay; assay type: functional; details: BT-549, 48 h
NCI/ADR-RES = assay: Cytotoxicity against human NCI/ADR-RES cells after 48 hrs by sulforhodamine B assay; assay type: functional
DU-145 = assay: Cytotoxicity against human DU145 cells after 48 hrs by sulforhodamine B assay; assay type: functional; details: DU-145, 48 h
PC-3 = assay: Cytotoxicity against human PC3 cells after 48 hrs by sulforhodamine B assay; assay type: functional; details: PC-3, 48 h
TK-10 = assay: Cytotoxicity against human TK10 cells after 48 hrs by sulforhodamine B assay; assay type: functional; details: TK-10, 48 h
ACHN = assay: Cytotoxicity against human ACHN cells after 48 hrs by sulforhodamine B assay; assay type: functional
RXF 393 = assay: Cytotoxicity against human RXF393 cells after 48 hrs by sulforhodamine B assay; assay type: functional; details: RXF 393, 48 h
OVCAR-8 = assay: Cytotoxicity against human OVCAR8 cells after 48 hrs by sulforhodamine B assay; assay type: functional; details: OVCAR-8, 48 h
OVCAR-4 = assay: Cytotoxicity against human OVCAR4 cells after 48 hrs by sulforhodamine B assay; assay type: functional; details: OVCAR-4, 48 h
IGROV-1 = assay: Cytotoxicity against human IGROV1 cells after 48 hrs by sulforhodamine B assay; assay type: functional; details: IGROV-1, 48 h
OVCAR-3 = assay: Cytotoxicity against human OVCAR3 cells after 48 hrs by sulforhodamine B assay; assay type: functional; details: OVCAR-3, 48 h
UACC-62 = assay: Cytotoxicity against human UACC62 cells after 48 hrs by sulforhodamine B assay; assay type: functional; details: UACC-62, 48 h
M14 = assay: Cytotoxicity against human M14 cells after 48 hrs by sulforhodamine B assay; assay type: functional; details: M14, 48 h
LOX IMVI = assay: Cytotoxicity against human LOXIMVI cells after 48 hrs by sulforhodamine B assay; assay type: functional
SNB-75 = assay: Cytotoxicity against human SNB75 cells after 48 hrs by sulforhodamine B assay; assay type: functional; details: SNB-75, 48 h
U-251 = assay: Cytotoxicity against human U251 cells after 48 hrs by sulforhodamine B assay; assay type: functional; details: U-251, 48 h
SF-295 = assay: Cytotoxicity against human SF295 cells after 48 hrs by sulforhodamine B assay; assay type: functional; details: SF-295, 48 h
SF-268 = assay: Cytotoxicity against human SF268 cells after 48 hrs by sulforhodamine B assay; assay type: functional; details: SF-268, 48 h
KM12 = assay: Cytotoxicity against human KM12 cells after 48 hrs by sulforhodamine B assay; assay type: functional; details: KM12, 48 h
HCT-116 = assay: Cytotoxicity against human HCT116 cells after 48 hrs by sulforhodamine B assay; assay type: functional; details: HCT-116, 48 h
HCT-15 = assay: Cytotoxicity against human HCT15 cells after 48 hrs by sulforhodamine B assay; assay type: functional; details: HCT-15, 48 h
NCI-H460 = assay: Cytotoxicity against human NCI-H460 cells after 48 hrs by sulforhodamine B assay; assay type: functional; details: NCI-H460, 48 h
NCI-H322M = assay: Cytotoxicity against human NCI-H322M cells after 48 hrs by sulforhodamine B assay; assay type: functional
HOP-92 = assay: Cytotoxicity against human HOP92 cells after 48 hrs by sulforhodamine B assay; assay type: functional; details: HOP-92, 48 h
[1] = Cytotoxicity against human EKVX cells after 48 hrs by sulforhodamine B assay; assay type: functional
HOP-62 = assay: Cytotoxicity against human HOP62 cells after 48 hrs by sulforhodamine B assay; assay type: functional; details: HOP-62, 48 h
SR = assay: Cytotoxicity against human SR cells after 48 hrs by sulforhodamine B assay; assay type: functional
RPMI-8226 = assay: Cytotoxicity against human RPMI8226 cells after 48 hrs by sulforhodamine B assay; assay type: functional; details: RPMI-8226, 48 h
MOLT-4 = assay: Cytotoxicity against human MOLT4 cells after 48 hrs by sulforhodamine B assay; assay type: functional; details: MOLT-4, 48 h
CCRF-CEM = assay: Cytotoxicity against human CCRF-CEM cells after 48 hrs by sulforhodamine B assay; assay type: functional
HL-60(TB) = assay: Cytotoxicity against human HL-60(TB) cells after 48 hrs by sulforhodamine B assay; assay type: functional; details: HL-60, 48 h

Row | Structure (SMILES) | GI50 (CAKI-1) | GI50 (T47D) | GI50 (BT-549) | GI50 (NCI/ADR-RES) | GI50 (DU-145) | GI50 (PC-3) | GI50 (TK-10) | GI50 (ACHN) | GI50 (RXF 393) | GI50 (OVCAR-8) | GI50 (OVCAR-4) | GI50 (IGROV-1) | GI50 (OVCAR-3) | GI50 (UACC-62) | GI50 (M14) | GI50 (LOX IMVI) | GI50 (SNB-75) | GI50 (U-251) | GI50 (SF-295) | GI50 (SF-268) | also measured
1 | COc1ccc(C(=O)N/N=C/c2ccc(O)cc2O)cc1Nc1ccnc(C(F)(F)F)c1 | 631 nM | 794 nM | 501 nM | 7940 nM | 631 nM | 631 nM | 501 nM | 2510 nM | 10000 nM | 794 nM | 631 nM | 631 nM | 316 nM | 501 nM | 794 nM | 501 nM | 794 nM | 398 nM | 794 nM | 316 nM | Activity (Mus musculus): Non-toxic; GI50 (KM12): 1580 nM; GI50 (HCT-116): 251 nM; GI50 (HCT-15): 2510 nM; GI50 (NCI-H460): 3160 nM; GI50 (NCI-H322M): 501 nM; GI50 (HOP-92): 316 nM; GI50 [1]: 398 nM; GI50 (HOP-62): 501 nM; GI50 (SR): 158 nM; GI50 (RPMI-8226): 2510 nM; GI50 (MOLT-4): 398 nM; GI50 (CCRF-CEM): 251 nM; GI50 (HL-60(TB)): 316 nM
2 | O=C(N/N=C/c1ccccc1O)c1ccccc1Nc1ccnc(C(F)(F)F)c1 | 316 nM | 1260 nM | 631 nM | 398 nM | 631 nM | 126 nM | 501 nM | 398 nM | 63.1 nM | 501 nM | 251 nM | 15.8 nM | 316 nM | 398 nM | 501 nM | 316 nM | 316 nM | 501 nM | 501 nM | 631 nM | Activity (Mus musculus): Non-toxic; GI50 (KM12): 398 nM; GI50 (HCT-116): 398 nM; GI50 (HCT-15): 200 nM; GI50 (NCI-H460): 251 nM; GI50 (NCI-H322M): 398 nM; GI50 (HOP-92): 158 nM; GI50 [1]: 316 nM; GI50 (HOP-62): 398 nM; GI50 (SR): 50.1 nM; GI50 (RPMI-8226): 200 nM; GI50 (MOLT-4): 316 nM; GI50 (CCRF-CEM): 200 nM; GI50 (HL-60(TB)): 398 nM
3 | CCOc1cccc(/C=N/NC(=O)Cc2ccc(Nc3ccnc(C(F)(F)F)c3)cc2)c1O | 2510 nM | 2510 nM | 2510 nM | 3980 nM | 2000 nM | 2000 nM | 3980 nM | 1580 nM | 3160 nM | 3160 nM | 794 nM | 2510 nM | 398 nM | 1580 nM | 2000 nM | 1580 nM | 12600 nM | 1580 nM | 3980 nM | 1260 nM | GI50 (KM12): 3980 nM; GI50 (HCT-116): 1260 nM; GI50 (HCT-15): 1000 nM; GI50 (NCI-H460): 1580 nM; GI50 (NCI-H322M): 2510 nM; GI50 (HOP-92): 2000 nM; GI50 [1]: 3980 nM; GI50 (HOP-62): 2510 nM; GI50 (SR): 316 nM; GI50 (RPMI-8226): 501 nM; GI50 (MOLT-4): 501 nM; GI50 (CCRF-CEM): 316 nM; GI50 (HL-60(TB)): 1000 nM
4 | COc1cccc(/C=N/NC(=O)c2ccccc2Nc2ccnc(C(F)(F)F)c2)c1O | 200 nM | 501 nM | 398 nM | 501 nM | 794 nM | 200 nM | 316 nM | 100 nM | 200 nM | 251 nM | 126 nM | 25.1 nM | 100 nM | 316 nM | 398 nM | 200 nM | 251 nM | 398 nM | 398 nM | 631 nM | Activity (Mus musculus): Non-toxic; GI50 (KM12): 398 nM; GI50 (HCT-116): 316 nM; GI50 (HCT-15): 158 nM; GI50 (NCI-H460): 200 nM; GI50 (NCI-H322M): 251 nM; GI50 (HOP-92): 158 nM; GI50 [1]: 251 nM; GI50 (HOP-62): 398 nM; GI50 (SR): 50.1 nM; GI50 (RPMI-8226): 158 nM; GI50 (MOLT-4): 10 nM; GI50 (CCRF-CEM): 251 nM; GI50 (HL-60(TB)): 200 nM
5 | CCOc1cccc(/C=N/NC(=O)c2ccccc2Nc2ccnc(C(F)(F)F)c2)c1O | 251 nM | 794 nM | 398 nM | 631 nM | 794 nM | 200 nM | 631 nM | 316 nM | 12600 nM | 501 nM | 251 nM | 39.8 nM | 316 nM | 501 nM | 631 nM | 200 nM | 398 nM | 398 nM | 501 nM | 794 nM | Activity (Mus musculus): Non-toxic; GI50 (KM12): 501 nM; GI50 (HCT-116): 316 nM; GI50 (HCT-15): 251 nM; GI50 (NCI-H460): 251 nM; GI50 (NCI-H322M): 398 nM; GI50 (HOP-92): 158 nM; GI50 [1]: 251 nM; GI50 (HOP-62): 501 nM; GI50 (SR): 63.1 nM; GI50 (RPMI-8226): 251 nM; GI50 (MOLT-4): 126 nM; GI50 (CCRF-CEM): 251 nM; GI50 (HL-60(TB)): 251 nM
